Reference: patent US20130252935A1, “Monobactams” (PFIZER INC., priority 2010, published 2013)
Values after ≈ are worked out from the molar mass of the structure shown.

Experiments:
Type in all cases: cell-based
[1] = tested on: Klebsiella pneumoniae 1000-02; assay: minimum inhibitory concentration (MIC) testing according to CLSI guidelines, Klebsiella pneumoniae; conditions: ciprofloxacin-resistant, ESBL-expressing clinical isolate 1000-02, overnight incubation, lower of duplicate values; for MIC: Klebsiella pneumoniae, read-out: AB-MBT: Klebsiella pneumoniae 1000-02: MIC (MstRcnt)
Experimental: (§1) In order to assess the compounds biological activity, the in vitro anti-bacterial activity of selected compounds described in the Examples 1-69 was evaluated by minimum inhibitory concentration (MIC) testing according to Clinical and Laboratory Standards Institute (CLSI, formerly NCCLS) guidelines. See: Clinical and Laboratory Standards Institute. Methods for Dilution Antimicrobial Susceptibility Tests for Bacteria that Grow Aerobically; Approved Standard-Eighth Edition. CLSI document M7-A8 [ISBN 1-56238-689-1]. Clinical and Laboratory Standards Institute, 940 West Valley Road, Suite 1400, Wayne, Pa. 19087-1898 USA, 2006; also Clinical and Laboratory Standards Institute. Performance Standards for Antimicrobial Susceptibility Testing; Twentieth Informational Supplement. CLSI document M100-S20 [ISBN1-56238-716-2]. Clinical and Laboratory Standards Institute.
(§2) The MIC determination is a standard laboratory method for evaluating the antibacterial activity of a compound. The MIC represents the lowest drug concentration that inhibits visible growth of bacteria following overnight incubation. […] Typically, the drug concentration range is broken down into 2-fold increments (e.g. 0.06 μg/mL, 0.12 μg/mL. 0.25 μg/mL, 0.50 μg/mL, 1.0 μg/mL, etc.) and the various drug concentrations are all individually incubated overnight with approximately the same number of bacteria. The MIC is then determined by visually inspecting the drug effect at each concentration, and identifying the lowest drug concentration that has inhibited bacterial growth as compared to the drug free control. Typically, bacteria continue to grow at drug concentrations lower than the MIC and don't grow at concentrations at and above the MIC.
(§3) The MIC values described in Table 1 below were derived from assays wherein each test compound was evaluated in duplicate. In cases where the duplicate values varied by 0-2-fold, the lower of the two values was reported below. Generally speaking, if the duplicate values varied by more than 2-fold, the assay was considered non-valid and was repeated until the variation between duplicate runs was ≦2-fold. In line with the CLSI guidelines referred to above, both control organisms and reference compounds were utilized in each MIC assay to provide proper quality control. MIC values generated with these control organisms and reference compounds were required to fall within a defined range for the assay to be considered valid and be included herein. Those skilled in the art will recognize that MIC values can and do vary from experiment to experiment. Generally speaking, it should be recognized that MIC values often vary +/−2-fold from experiment to experiment. While a single MIC is reported for each compound and each microorganism, the reader should not conclude that each compound was only tested once. Several of the compounds were subjected to multiple tests. The data reported in Table 1 is reflective of the compounds relative activity and different MICs may have been generated on these occasions in light with the guidelines described above.
(§4) The following bacterial strains were used in these MIC determinations:
2) Klebsiella pneumoniae: Ciprofloxacin-resistant isolate, expresses extended-spectrum beta-lactamases (ESBL), clinical isolate, labeled as 1000-02;

[2] = tested on: Pseudomonas aeruginosa UC-12120; assay: minimum inhibitory concentration (MIC) testing according to CLSI guidelines, Pseudomonas aeruginosa; conditions: UC-12120, wild-type, labeled as 1091-05, overnight incubation, lower of duplicate values; for MIC: Pseudomonas aeruginosa, UC12120, read-out: AB-MBT: Pseudomonas aeruginosa 1091-05: MIC (MstRcn)
Experimental: as §1, §2, §3, §4
1) Pseudomonas aeruginosa UC-12120: Wild-type, labeled as 1091-05;

[3] = tested on: Acinetobacter baumannii/haemolyticus AB-3167; assay: minimum inhibitory concentration (MIC) testing according to CLSI guidelines, Acinetobacter; conditions: multidrug-resistant clinical isolate AB-3167, overnight incubation, lower of duplicate values; for MIC: Acinetobacter baumannii, read-out: AB-MBT: Acinetobacter baumanii AB-3167: MIC (MstRcnt)
Experimental: as §1, §2, §3, §4
3) Acinetobacter baumannii/haemolyticus: Multidrug-resistant clinical isolate, labeled as AB-3167.

Structure (SMILES) | AB-MBT: Klebsiella pneumoniae 1000-02: MIC (MstRcnt) [1] [mg/L] | AB-MBT: Pseudomonas aeruginosa 1091-05: MIC (MstRcn) [2] [mg/L] | AB-MBT: Acinetobacter baumanii AB-3167: MIC (MstRcnt) [3] [mg/L] | MIC [1] [mg/L] | MIC [2] [mg/L] | MIC [3] [mg/L]
Nc1nc(/C(=N/OC2(C(=O)O)CCC2)C(=O)N[C@@H]2C(=O)N(S(=O)(=O)O)[C@@H]2CNC(=O)c2cccc(S(=O)(=O)NCc3cc(=O)c(O)cn3O)c2)cs1 [Example 59] | 0.250 | 0.250 | 0.250 | – | – | –
CC(C)(O/N=C(\C(=O)N[C@@H]1C(=O)N(S(=O)(=O)O)[C@@H]1CNC(=O)Cc1ccc(NC(=O)c2cc(=O)c(O)cn2O)cc1)c1csc(N)n1)C(=O)O [Example 45, 2-({[(1Z)-1-(2-amino-1,3-thiazol-4-yl)-2-{[(2R,3S)-2-({[(4-{[(1,5-dihydroxy-4-oxo-1,4-dihydropyridin-2-yl)carbonyl]amino}phenyl)acetyl]amino}methyl)-4-oxo-1-sulfoazetidin-3-yl]amino}-2-oxoethylidene]amino}oxy)-2-methylpropanoic acid] | – | – | – | 4 (≈ 5.43 µM) | 0.5 (≈ 0.679 µM) | 0.5 (≈ 0.679 µM)
CC(C)(O/N=C(\C(=O)N[C@@H]1C(=O)N(S(=O)(=O)O)[C@@H]1COC(=O)c1cc(-c2cc(=O)c(O)cn2O)no1)c1csc(N)n1)C(=O)O [Example 13, 2-({[(1Z)-1-(2-amino-1,3-thiazol-4-yl)-2-({(2S,3S)-2-[({[3-(1,5-dihydroxy-4-oxo-1,4-dihydropyridin-2-yl)isoxazol-5-yl]carbonyl}oxy)methyl]-4-oxo-1-sulfoazetidin-3-yl}amino)-2-oxoethylidene]amino}oxy)-2-methylpropanoic acid] | – | – | – | 0.125 (≈ 0.186 µM) | 0.25 (≈ 0.372 µM) | 0.5 (≈ 0.745 µM)
CC(C)(O/N=C(\C(=O)N[C@@H]1C(=O)N(S(=O)(=O)O)[C@@H]1CNC(=O)C(=O)NCC1=CC(=O)C(O)=CC1O)c1csc(N)n1)C(=O)O (stereo partly drawn) [Example 41, 2-({[(1Z)-1-(2-amino-1,3-thiazol-4-yl)-2-{[(2R,3S)-2-({[{[(4,6-dihydroxy-3-oxocyclohexa-1,4-dien-1-yl)methyl]amino}(oxo)acetyl]amino}methyl)-4-oxo-1-sulfoazetidin-3-yl]amino}-2-oxoethylidene]amino}oxy)-2-methylpropanoic acid] | – | – | – | 0.5 (≈ 0.758 µM) | 0.06 (≈ 0.091 µM) | 0.25 (≈ 0.379 µM)
CC(C)(O/N=C(\C(=O)N[C@@H]1C(=O)N(S(=O)(=O)O)[C@@H]1COC(=O)c1ccnc(-c2cc(=O)c(O)c[nH]2)n1)c1csc(N)n1)C(=O)O [Example 21, 2-({[(1Z)-1-(2-amino-1,3-thiazol-4-yl)-2-({(2S,3S)-2-[({[2-(5-hydroxy-4-oxo-1,4-dihydropyridin-2-yl)pyrimidin-4-yl]carbonyl}oxy)methyl]-4-oxo-1-sulfoazetidin-3-yl}amino)-2-oxoethylidene]amino}oxy)-2-methylpropanoic acid] | – | – | – | 64 (≈ 96 µM) | 8 (≈ 12 µM) | > 64
CC(C)(O/N=C(\C(=O)N[C@@H]1C(=O)N(S(=O)(=O)O)[C@@H]1CNC(=O)c1cc(-c2cc(=O)c(O)cn2O)on1)c1csc(N)n1)C(=O)O [Example 16, 2-({[(1Z)-1-(2-amino-1,3-thiazol-4-yl)-2-({(2R,3S)-2-[({[5-(1,5-dihydroxy-4-oxo-1,4-dihydropyridin-2-yl)isoxazol-3-yl]carbonyl}amino)methyl]-4-oxo-1-sulfoazetidin-3-yl}amino)-2-oxoethylidene]amino}oxy)-2-methylpropanoic acid] | – | – | – | 0.5 (≈ 0.746 µM) | 0.25 (≈ 0.373 µM) | 1 (≈ 1.49 µM)
CC(C)(O/N=C(\C(=O)N[C@@H]1C(=O)N(S(=O)(=O)O)[C@@H]1CNC(=O)c1csc(-c2cc(=O)c(O)c[nH]2)n1)c1csc(N)n1)C(=O)O [Example 20, 2-({[(1Z)-1-(2-amino-1,3-thiazol-4-yl)-2-({(2R,3S)-2-[({[2-(5-hydroxy-4-oxo-1,4-dihydropyridin-2-yl)-1,3-thiazol-4-yl]carbonyl}amino)methyl]-4-oxo-1-sulfoazetidin-3-yl}amino)-2-oxoethylidene]amino}oxy)-2-methylpropanoic acid] | – | – | – | 0.5 (≈ 0.746 µM) | 1 (≈ 1.49 µM) | 1 (≈ 1.49 µM)
CC(C)(O/N=C(\C(=O)N[C@@H]1C(=O)N(S(=O)(=O)O)[C@@H]1CNC(=O)c1cccc(NC(=O)c2cc(=O)c(O)cn2O)c1)c1csc(N)n1)C(=O)O [Example 67, 2-({[(1Z)-1-(2-amino-1,3-thiazol-4-yl)-2-{[(2R,3S)-2-{[(3-{[(1,5-dihydroxy-4-oxo-1,4-dihydropyridin-2-yl)carbonyl]amino}benzoyl)amino]methyl}-4-oxo-1-sulfoazetidin-3-yl]amino}-2-oxoethylidene]amino}oxy)-2-methylpropanoic acid] | – | – | – | 4 (≈ 5.54 µM) | 4 (≈ 5.54 µM) | 2 (≈ 2.77 µM)
CC(C)(O/N=C(\C(=O)N[C@@H]1C(=O)N(S(=O)(=O)O)[C@@H]1COC(=O)c1cc(-c2cc(=O)c(O)c[nH]2)no1)c1csc(N)n1)C(=O)O [Example 12, 2-({[(1Z)-1-(2-amino-1,3-thiazol-4-yl)-2-({(2S,3S)-2-[({[3-(5-hydroxy-4-oxo-1,4-dihydropyridin-2-yl)isoxazol-5-yl]carbonyl}oxy)methyl]-4-oxo-1-sulfoazetidin-3-yl}amino)-2-oxoethylidene]amino}oxy)-2-methylpropanoic acid] | – | – | – | 0.25 (≈ 0.381 µM) | 4 (≈ 6.1 µM) | 16 (≈ 24.4 µM)
Nc1nc(/C(=N/OC2(C(=O)O)CCC2)C(=O)N[C@@H]2C(=O)N(S(=O)(=O)O)[C@@H]2CNC(=O)c2ccc(CNC(=O)c3cc(=O)c(O)cn3O)cc2)cs1 [Example 62, 1-({[(1Z)-1-(2-amino-1,3-thiazol-4-yl)-2-{[(2R,3S)-2-({[4-({[(1,5-dihydroxy-4-oxo-1,4-dihydropyridin-2-yl)carbonyl]amino}methyl)benzoyl]amino}methyl)-4-oxo-1-sulfoazetidin-3-yl]amino}-2-oxoethylidene]amino}oxy)cyclobutanecarboxylic acid] | – | – | – | 1 (≈ 1.34 µM) | 2 (≈ 2.67 µM) | 0.5 (≈ 0.668 µM)
CC(C)(O/N=C(\C(=O)N[C@@H]1C(=O)N(S(=O)(=O)O)[C@@H]1CNC(=O)OCc1cc(-c2cc(=O)c(O)cn2O)no1)c1csc(N)n1)C(=O)O [Example 38, 2-(5-{[({[(2R,3S)-3-{[(2Z)-2-(2-amino-1,3-thiazol-4-yl)-2-{[(2-carboxypropan-2-yl)oxy]imino}acetyl]amino}-4-oxo-1-sulfoazetidin-2-yl]methyl}carbamoyl)oxy]methyl}isoxazol-3-yl)-1,5-dihydroxy-4-oxo-1,4-dihydropyridinium] | 0.5 | 2.0 | 0.5 | – | – | –
CC(C)(O/N=C(\C(=O)N[C@@H]1C(=O)N(S(=O)(=O)O)[C@@H]1COC(=O)CNC(=O)c1cc(O)c(O)cn1)c1csc(N)n1)C(=O)O [Example 6, 2-({[(1Z)-1-(2-amino-1,3-thiazol-4-yl)-2-({(2S,3S)-2-[({N-[(4,5-dihydroxypyridin-2-yl)carbonyl]glycyl}oxy)methyl]-4-oxo-1-sulfoazetidin-3-yl}amino)-2-oxoethylidene]amino}oxy)-2-methylpropanoic acid] | – | – | – | 8 (≈ 12.4 µM) | – | 1 (≈ 1.55 µM)
